From US6333340A, “Small molecule sulfonamides for vision and memory disorders” (Gpi Nil Holdings, Inc., priority 1998, dated 2001)

Columns and labels:
FKBP12 = FKBP12 (Homo sapiens, UniProt P62942); test: Inhibition of peptidyl-prolyl isomerase (rotamase) activity of FKBP, chymotrypsin-coupled assay; assay type: biochemical; settings: Table V; read-out: Ki rotomase
Description: The inhibition of the prolyl peptidyl cis-trans isomerase activity of FKBP may be measured as an indicator of this affinity.
Inhibition of the peptidyl-prolyl isomerase (rotamase) activity of the compounds used in the inventive methods and pharmaceutical compositions can be evaluated by known methods described in the literature (Harding et al., Nature, 1989, 341:758-760; Holt et al. J. Am. Chem. Soc., 115:9923-9938). These values are obtained as apparent Ki 's and are presented for representative compounds in TABLE B.
The cis-trans isomerization of an alanine-proline bond in a model substrate, N-succinyl-Ala-Ala-Pro-Phe-p-nitroanilide, is monitored spectrophotometrically in a chymotrypsin-coupled assay, which releases para-nitroanilide from the trans form of the substrate. The inhibition of this reaction caused by the addition of different concentrations of inhibitor is determined, and the data is analyzed as a change in first-order rate constant as a function of inhibitor concentration to yield the apparent Ki values.
In a plastic cuvette are added […] of ice cold assay buffer (25 mM HEPES, pH 7.8, 100 mM NaCl), 10 mL of FKBP (2.5 mM in 10 mM Tris-Cl pH 7.5, 100 mM NaCl, 1 mM dithiothreitol), 25 mL of chymotrypsin (50 mg/ml in 1 mM HCl) and […] of test compound at various concentrations in dimethyl sulfoxide. The reaction is initiated by the addition of 5 mL of substrate (succinyl-Ala-Phe-Pro-Phe-para-nitroanilide, 5 mg/mL in 2.35 mM LiCl in trifluoroethanol).
The absorbance at 390 nm versus time is monitored for 90 seconds using a spectrophotometer and the rate constants are determined from the absorbance versus time data files.

optic nerve axons = test: Optic nerve transection, optic nerve axon density (RT97 neurofilament immunohistochemistry); assay type: in vivo, Sprague Dawley rats; settings: for % surviving RGCs with ON axons / ON head area (% sham) / increased ON axon density / ON axon Count / ON Axon density: 90 days after ONT; for increased ON axon density: adjusted for optic nerve diameter; for ON axon Count: axonal density multiplied by ON area; for ON Axon density: mean + SEM in 200 μm × 200 μm region
Description: All eyes and optic nerves stumps were removed.
^2 mean density + SEM of RT97 neurofilament antibody labeled optic
nerve (ON) axons in 200 μm × 200 μm region of interest
^3 adjusted for optic nerve diameter
^4 calculated by multiplying axonal density by ON area

retinal ganglion cells [1] = test: Retinal ischemia, retinal ganglion cell degeneration; assay type: in vivo, adult rats; settings: 10 mg/kg, s.c. 1 hour prior to ischemia and 10 mg/kg/day next four days; 28 days
Description: Retinal ganglion cells were retrogradely labeled in adult rats by bilateral injection of fluorogold in their lateral geniculate nuclei. Labeled ganglion cells in the normal rat retina appear as white profiles against the dark background (FIG. 1A). Complete retinal ischemia was produced by infusing normal saline solution into the retinal vitreous cavity of each eye until the intraocular pressure exceeded arterial blood pressure. 28 days after the ischemic episode extensive degeneration of retinal ganglion cell was evidenced by massive reduction in the density of fluorogold labeled cells (FIG. 1B).

[2] = test system: optic nerve axons and myelin; test: Retinal ischemia, degeneration of optic nerve axons and myelin (toluidine blue); assay type: in vivo, rat
retina = test: Streptozotocin induced diabetes, retinal neovascularization and neuron loss (cresyl violet); assay type: in vivo
retinal ganglion cells [3] = test: Optic nerve transection, ganglion cell survival and axonal dying back (Example 16); assay type: in vivo, Sprague Dawley rats; settings: 10 mg/kg/day s.c. for 28 days; 90 days after transection
Description: Transection of the mammalian optic nerve results in a brief period of abortive regeneration, but the majority of axotomized neurons die and the axons from many persisting ganglion cells die back beyond the optic nerve head.

CNS = test: Sprouting within the CNS following partial deafferentation; assay type: in vivo
[4] = 28 days after 1 hour retinal ischemic episode
[5] = 28 day treatment beginning 8 weeks after onset of diabetes

Sequence of FKBP12 (P62942 whole entry): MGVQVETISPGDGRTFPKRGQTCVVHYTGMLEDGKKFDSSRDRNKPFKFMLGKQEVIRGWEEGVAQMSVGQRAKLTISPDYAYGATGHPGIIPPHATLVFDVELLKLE

## CCC(C)(C)C(=O)C(=O)N1CCC[C@H]1C(=O)OCCCc1cccnc1 [GPI 1046]
FKBP12
  Ki: 7.5 nM
Optic nerve axons; 14 days treatment
  % surviving RGCs with ON axons: 33.6%
  ON head area (% sham): 76%
  increased ON axon density: 1.5 X
  ON axon Count: 6820
  ON Axon density: 569 ± 23
Optic nerve axons; 28 day treatment
  density of large, medium and small caliber optic nerve axons: significant increase in the density of large, and particularly medium and small caliber optic nerve axons
Optic nerve axons; 28 days treatment
  % surviving RGCs with ON axons: 81.4%
  ON head area (% sham): 95%
  increased ON axon density: 5.0 X
  ON axon Count: 22,861
  ON Axon density: 1526 ± 120
Optic nerve axons; FIG. 5
  effect on optic nerve axons versus ganglion cell bodies: greater effect on optic nerve axons than ganglion cell bodies
Optic nerve axons; first 14 days after transection
  protection of optic nerve axons: 5.3%
Optic nerve axons; following optic nerve transection, FIG. 12
  preservation of optic nerve axons in the proximal stump: preserves optic nerve axons in the proximal stump
Retinal ganglion cells [1]
  protection of the vulnerable ganglion cell population: noticeable protection of a large proportion of the vulnerable ganglion cell population
[2]; [4]
  density of degenerating myelin figures: dramatically decreased the density of degenerating myelin figures
  protection of optic nerve axons from degeneration: protected the majority of optic nerve axons from degeneration
[2]; retinal ischemia
  protection of optic nerve element from ischemic degeneration: dramatic protection of optic nerve element from ischemic degeneration
retina; [5]
  neovascularization in the PR, ONL, OPL and INL: reduced neovascularization
  protection against neuronal loss in the ONL: did not appear to protect against neuronal loss in the ONL
retina; 28 day treatment, compared to streptozotocin/vehicle
  loss of neurons in INL and GCL: appeared to decrease the loss of neurons in both the INL and GCL
Retinal ganglion cells [3]
  perikaryal neuroprotection: moderate degree of perikaryal neuroprotection
  preservation of axons of protected neurons in the proximal stump: preserved the axons of virtually all protected neurons
  sparing of the ganglion cell population: 25%
CNS
  sprouting within the CNS: stimulate sprouting within the CNS following partial deafferentation
